The record followed here is patent publication US20100105651A1, “ANTAGONISTS OF SNS SODIUM CHANNELS” (priority 2005, published 2010).

Each structure is given as a SMILES string.

In the experiment the target is T1, human NaV1.8 (hNaV1.8) ion channel (Homo sapiens, UniProt Q9Y5Y9).
T1 construct: expressed in transfected cells
T1 sequence (Q9Y5Y9 whole entry): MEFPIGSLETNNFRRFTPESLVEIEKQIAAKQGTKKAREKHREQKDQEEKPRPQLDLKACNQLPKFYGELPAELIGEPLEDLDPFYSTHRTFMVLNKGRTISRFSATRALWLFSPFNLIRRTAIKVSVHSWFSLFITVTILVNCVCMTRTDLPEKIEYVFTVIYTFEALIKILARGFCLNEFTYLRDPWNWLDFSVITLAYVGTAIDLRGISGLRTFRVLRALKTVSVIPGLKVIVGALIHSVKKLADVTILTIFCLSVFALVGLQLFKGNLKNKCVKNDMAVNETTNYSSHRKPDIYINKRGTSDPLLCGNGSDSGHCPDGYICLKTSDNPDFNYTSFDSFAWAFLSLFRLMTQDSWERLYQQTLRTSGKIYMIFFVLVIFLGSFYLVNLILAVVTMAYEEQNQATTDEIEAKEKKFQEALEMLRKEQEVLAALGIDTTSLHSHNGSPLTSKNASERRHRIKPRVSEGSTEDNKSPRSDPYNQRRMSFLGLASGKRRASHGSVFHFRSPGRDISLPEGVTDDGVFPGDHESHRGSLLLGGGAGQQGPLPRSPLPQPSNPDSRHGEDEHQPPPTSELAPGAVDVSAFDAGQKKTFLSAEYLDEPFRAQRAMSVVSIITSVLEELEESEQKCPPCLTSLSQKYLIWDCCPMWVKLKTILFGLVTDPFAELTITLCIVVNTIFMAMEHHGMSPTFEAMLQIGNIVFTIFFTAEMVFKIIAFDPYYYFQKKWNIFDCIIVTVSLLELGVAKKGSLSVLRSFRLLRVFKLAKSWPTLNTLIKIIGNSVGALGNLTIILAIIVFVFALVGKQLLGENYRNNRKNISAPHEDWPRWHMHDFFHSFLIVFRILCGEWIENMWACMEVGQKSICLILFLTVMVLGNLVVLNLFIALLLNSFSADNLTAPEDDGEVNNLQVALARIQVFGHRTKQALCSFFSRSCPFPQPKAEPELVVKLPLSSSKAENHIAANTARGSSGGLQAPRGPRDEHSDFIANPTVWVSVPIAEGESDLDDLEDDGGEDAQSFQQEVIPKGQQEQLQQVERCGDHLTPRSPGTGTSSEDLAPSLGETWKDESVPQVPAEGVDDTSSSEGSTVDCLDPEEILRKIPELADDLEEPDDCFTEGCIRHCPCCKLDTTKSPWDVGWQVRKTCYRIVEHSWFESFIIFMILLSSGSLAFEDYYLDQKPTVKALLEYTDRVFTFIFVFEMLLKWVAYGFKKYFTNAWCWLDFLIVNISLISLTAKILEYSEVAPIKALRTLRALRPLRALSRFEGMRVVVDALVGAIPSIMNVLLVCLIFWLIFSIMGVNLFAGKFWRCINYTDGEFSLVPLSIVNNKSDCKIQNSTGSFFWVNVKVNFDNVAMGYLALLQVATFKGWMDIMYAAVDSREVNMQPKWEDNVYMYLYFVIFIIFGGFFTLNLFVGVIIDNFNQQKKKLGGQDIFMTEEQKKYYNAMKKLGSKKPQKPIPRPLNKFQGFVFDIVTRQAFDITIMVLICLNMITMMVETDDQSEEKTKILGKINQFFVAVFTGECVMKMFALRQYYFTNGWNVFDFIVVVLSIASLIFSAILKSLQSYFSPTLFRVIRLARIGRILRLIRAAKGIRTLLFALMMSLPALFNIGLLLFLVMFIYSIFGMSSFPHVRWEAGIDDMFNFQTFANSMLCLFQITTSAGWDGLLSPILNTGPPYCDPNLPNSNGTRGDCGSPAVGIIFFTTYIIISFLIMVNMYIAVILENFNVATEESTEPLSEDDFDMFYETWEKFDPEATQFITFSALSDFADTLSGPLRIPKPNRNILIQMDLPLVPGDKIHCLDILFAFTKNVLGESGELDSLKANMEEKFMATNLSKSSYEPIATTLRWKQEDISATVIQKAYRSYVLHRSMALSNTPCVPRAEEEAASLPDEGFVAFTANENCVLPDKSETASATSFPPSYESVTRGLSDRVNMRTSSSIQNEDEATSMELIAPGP
Description: Inhibition of Human NaV1.8 stably expressed in SH-SY-5Y cells (membrane potential dye fluorescence assay). Type of experiment: cell-based. As to conditions: SH-SY-5Y cells stably expressing hNaV1.8; FLIPR membrane potential dye; 10 μM pyrethroid, 250 nM TTX; test range 100 μM-0.05 μM; read-out: hNav1.8 IC50. The procedure:
Inhibition of Human NaV1.8 stably expressed in SH-SY-5Y cells
A SH-SY-5Y neuroblastoma cell line stably expressing the human NaV1.8 (hNaV1.8) ion channel was constructed. This cell line has been used to develop a medium to high throughput assay for determining the ability of test compounds to inhibit membrane depolarisation mediated via the hNaV1.8 channel.
SH-SY-5Y hNaV1.8 are grown in adherent monolayer culture using 50:50 Ham's F-12/EMEM tissue culture medium supplemented with 15% (v/v) foetal bovine serum; 2 mM L-glutamine, 1% NEAA and 600 μg·ml^−1 Geneticin sulphate. Cells are removed from the tissue culture flask using trypsin/EDTA and re-plated into black walled, clear bottom 96-well assay plates at 50,000 cells·well^−1 24 hours prior to assay.
On the day of assay the cell assay plates are washed to remove cell culture medium using a sodium free assay buffer (145 mM tetramethyl ammonium chloride; 2 mM calcium chloride; 0.8 mM magnesium chloride hexahydrate; 10 mM HEPES; 10 mM glucose; 5 mM potassium chloride, pH 7.4). Fluorescent membrane potential dye solution (FLIPR™ membrane potential dye, Molecular Devices Corporation), containing 10 μM of a pyrethroid to prevent channel inactivation and 250 nM tetrodotoxin (TTX) to reduce interference from TTX-sensitive sodium channels present in the cell line. Test compound, initially dissolved in dimethyl sulfoxide but further diluted in sodium free buffer, is added to achieve the final test concentration range of 100 μM-0.05 μM.
Cell plates are incubated for 30 minutes at room temperature to allow equilibration of dye and test compound. Plates are then transferred to a fluorescence plate reader for fluorescence measurement using an excitation wavelength of 530 nm whilst measuring fluorescence emission at 565 nm. […] Membrane depolarisation is registered by an increase in fluorescence emission at 565 nm.
The change in fluorescence seen in each test well upon the addition of sodium containing buffer is calculated relative to the baseline fluorescence for that well. This figure is then used for calculating the IC50 for each test compound.
Usually IC50 stands for the concentration that gives 50% inhibition. Take `CCCCOc1cccc(NC(=O)N2CC(N(C)C(C)c3ccccc3C)C2)c1` (stereo not drawn) [Example 87, 3-[Methyl-(1-o-tolyl-ethyl)-amino]-azetidine-1-carboxylic acid (3-butoxy-phenyl)-amide]: the half-inhibitory concentration (IC50) turned out to be 1030 nM. Next, `COc1ccc2c(c1)CCC2NC1CN(C(=O)Nc2ccc(Oc3ccc(F)cc3)cc2)C1` (stereo not drawn) [Example 21, 3-(5-Methoxy-indan-1-ylamino)-azetidine-1-carboxylic acid [4-(4-fluoro-phenoxy)-phenyl]-amide]: 310 nM.

For `CC(c1ccc(F)cc1)N(C)C1CN(C(=O)Nc2cccc(C(F)(F)F)c2)C1` (stereo not drawn) [Example 95, 3-{[1-(4-Fluoro-phenyl)-ethyl]-methyl-amino}-azetidine-1-carboxylic acid (3-trifluoromethyl-phenyl)-amide], the IC50 was found to be 4550 nM. The result for `CC(c1ccccc1C(F)(F)F)N(C)C1CN(C(=O)Nc2ccc(Oc3ccccc3)cc2)C1` (stereo not drawn) [Example 93, 3-{Methyl-[1-(2-trifluoromethyl-phenyl)-ethyl]-amino}-azetidine-1-carboxylic acid (4-phenoxy-phenyl)-amide] reads 1800 nM; that for `CC(NC1CN(C(=O)Nc2ccc(Oc3ccccc3)cc2)C1)c1ccc(OC(F)(F)F)cc1` (stereo not drawn) [Example 70, 3-[1-(4-Trifluoromethoxy-phenyl)-ethylamino]-azetidine-1-carboxylic acid (4-phenoxy-phenyl)-amide], 22100 nM.

With `CCCCOc1cccc(NC(=O)N2CC(N(C)C(C)c3ccc(F)cc3)C2)c1` (stereo not drawn) [Example 85, 3-{[1-(4-Fluoro-phenyl)-ethyl]-methyl-amino}-azetidine-1-carboxylic acid (3-butoxy-phenyl)-amide], the IC50 worked out at 1460 nM. Next, `CC(NC1CN(C(=O)Cc2ccc(Oc3ccccc3)cc2)C1)c1ccccc1` (stereo not drawn) [Example 46, 2-(4-Phenoxy-phenyl)-1-[3-(1-phenyl-ethylamino)-azetidin-1-yl]-ethanone]: 1070 nM.

With `O=C(Nc1ccc(OCc2ccccc2)cc1)N1CC(NCc2c(F)cccc2F)C1` [Example 52, 3-(2,6-Difluoro-benzylamino)-azetidine-1-carboxylic acid (4-benzyloxy-phenyl)-amide], the IC50 amounted to 870 nM. Next, `CN(C1CN(C(=O)Nc2ccc(C(F)(F)F)cc2)C1)C1CCc2cc(F)ccc21` (stereo not drawn) [Example 39, 3[(5-Fluoro-indan-1-yl)-methyl-amino]-azetidine-1-carboxylic acid (4-trifluoromethyl-phenyl)-amide]: 2020 nM; `CC(NC1CN(C(=O)Nc2ccc(Oc3ccccc3)cc2)C1)c1ccccc1C(F)(F)F` (stereo not drawn) [Example 88, 3-[1-(2-Trifluoromethyl-phenyl)-ethylamino]-azetidine-1-carboxylic acid (4-phenoxy-phenyl)-amide]: 1180 nM; `CC(NC1CN(C(=O)Nc2ccc(Oc3ccc(F)cc3)cc2)C1)c1c(F)cccc1F` (stereo not drawn) [Example 131, 3-[1-(2,6-Difluoro-phenyl)-ethylamino]-azetidine-1-carboxylic acid [4-(4-fluoro-phenoxy)-phenyl]-amide]: 530 nM.

Take `O=C(c1ccccc1)c1ccc(NC(=O)N2CC(NC3CCc4cc(F)ccc43)C2)cc1` (stereo not drawn) [Example 31, 3-(5-Fluoro-indan-1-ylamino)-azetidine-1-carboxylic acid (4-benzoyl-phenyl)-amide]: the IC50 amounted to 7250 nM. The result for `CC(NC1CN(C(=O)NC(c2ccc(F)cc2)c2ccc(F)cc2)C1)c1ccc(F)cc1` (stereo not drawn) [Example 2, 3-[1-(4-Fluoro-phenyl)-ethylamino]-azetidine-1-carboxylic acid [bis-(4-fluoro-phenyl)-methyl]-amide] reads 2620 nM; that for `CC(NC1CN(C(=O)Nc2cccc(Oc3ccccc3)c2)C1)c1ccc(F)cc1Cl` (stereo not drawn) [Example 58, 3-[1-(2-Chloro-4-fluoro-phenyl)-ethylamino]-azetidine-1-carboxylic acid (3-phenoxy-phenyl)-amide], 1120 nM.

For the compound `Cc1ccccc1C(C)NC1CN(C(=O)Nc2ccc(C(F)(F)F)cc2)C1` (stereo not drawn) [Example 104, 3-(1-o-Tolyl-ethylamino)-azetidine-1-carboxylic acid (4-trifluoromethyl-phenyl)-amide], the 50% inhibitory concentration (IC50) turned out to be 2540 nM.

Consider `O=C(Nc1ccc(Oc2ccc(F)cc2)cc1)N1CC(NC2CCc3cc(F)ccc3C2)C1` (stereo not drawn) [Example 8, 3-(6-Fluoro-1,2,3,4-tetrahydro-naphthalen-2-ylamino)-azetidine-1-carboxylic acid [4-(4-fluoro-phenoxy)-phenyl]-amide], for which the IC50 was found to be 310 nM. Next, `O=C(Cc1ccc(Oc2ccccc2)cc1)N1CC(NC2CCc3cc(F)ccc32)C1` (stereo not drawn) [Example 47, 1-[3-(5-Fluoro-indan-1-ylamino)-azetidin-1-yl]-2-(4-phenoxy-phenyl)-ethanone]: 1660 nM. The result for `Cc1ccc(C(C)NC2CN(C(=O)Nc3ccc(Oc4ccccc4)cc3)C2)cc1` (stereo not drawn) [Example 121, 3-(1-p-Tolyl-ethylamino)-azetidine-1-carboxylic acid (4-phenoxy-phenyl)-amide] reads 400 nM; that for `CC(NC1CN(C(=O)Nc2ccc(Oc3ccccc3)cc2)C1)c1ccccc1Cl` (stereo not drawn) [Example 63, 3-[1-(2-Chloro-phenyl)-ethylamino]-azetidine-1-carboxylic acid (4-phenoxy-phenyl)-amide], 630 nM; that for `COc1ccc(C(C)NC2CN(C(=O)Nc3ccc(C(F)(F)F)cc3)C2)cc1` (stereo not drawn) [Example 115, 3-[1-(4-Methoxy-phenyl)-ethylamino]-azetidine-1-carboxylic acid (4-trifluoromethyl-phenyl)-amide], 2430 nM. The result for `CC(NC1CN(C(=O)Nc2ccc(Oc3ccccc3)cc2)C1)c1ccc(F)cc1Cl` (stereo not drawn) [Example 57, 3-[1-(2-Chloro-4-fluoro-phenyl)-ethylamino]-azetidine-1-carboxylic acid (4-phenoxy-phenyl)-amide] reads 1220 nM. As to `CC(NC1CN(C(=O)Nc2ccc(C(F)(F)F)cc2)C1)c1ccc(Oc2ccccc2)cc1` (stereo not drawn) [Example 78, 3-[1-(4-Phenoxy-phenyl)-ethylamino]-azetidine-1-carboxylic acid (4-trifluoromethyl-phenyl)-amide], the 50% inhibitory concentration (IC50) came out at 1300 nM. The result for `Cc1ccccc1C(C)NC1CN(C(=O)Nc2cccc(Oc3ccccc3)c2)C1` (stereo not drawn) [Example 106, 3-(1-o-Tolyl-ethylamino)-azetidine-1-carboxylic acid (3-phenoxy-phenyl)-amide] reads 560 nM; that for `CCCCOc1cccc(NC(=O)N2CC(NC(C)c3ccc(F)cc3)C2)c1` (stereo not drawn) [Example 69, 3-[1-(4-Fluoro-phenyl)-ethylamino]-azetidine-1-carboxylic acid (3-butoxy-phenyl)-amide], 1320 nM. As for `O=C(Nc1ccc(Oc2ccccc2)cc1)N1CC(NC2COc3ccccc32)C1` (stereo not drawn) [Example 123, 3-(2,3-Dihydro-benzofuran-3-ylamino)-azetidine-1-carboxylic acid (4-phenoxy-phenyl)-amide], the IC50 was found to be 1700 nM.

Consider `O=C(Nc1ccc(Oc2ccc(F)cc2)cc1)N1CC(NC2CCc3cc(Br)ccc32)C1` (stereo not drawn) [Example 17, 3-(5-Bromo-indan-1-ylamino)-azetidine-1-carboxylic acid [4-(4-fluoro-phenoxy)-phenyl]-amide], for which the IC50 was found to be 540 nM.

Consider `Cc1cc(F)ccc1C(C)NC1CN(C(=O)Nc2ccc(Oc3ccccc3)cc2)C1` (stereo not drawn) [Example 111, 3-[1-(4-Fluoro-2-methyl-phenyl)-ethylamino]-azetidine-1-carboxylic acid (4-phenoxy-phenyl)-amide], for which the IC50 was 630 nM.
